Several values for one entry are separate records, joined by “and”; a condition that tells them apart may be missing. Identical values can stand only once.
System: 743489-274-T-PDC complex spheroid viability
Experiment: Anticancer human tumor 743489-274-T-PDC patient-derived renal cell carcinoma cell line growth inhibition
Settings: for viability, T/C: stronger effect = lower value
In short: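 Drug combinations with the LSD1 inhibitor iadademstat tested on tumor cells co-cultured as spheroids with endothelial cells and mesenchymal stem cells. Concentrations descended in half-log increments from clinical Cmax or 10 microM.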

[1] = curve of first compound, second compound 0.1 µM
[2] = curve of first compound, second compound 0.316 µM
[3] = curve of first compound, second compound 1 µM
[4] = curve of first compound, second compound 3.16 µM
[5] = curve of first compound, second compound 10 µM
[6] = second compound 0.1 µM, first compound 0.000316 µM
[7] = second compound 0.1 µM, first compound 0.001 µM
[8] = second compound 0.1 µM, first compound 0.00316 µM
[9] = second compound 0.1 µM, first compound 0.01 µM
[10] = second compound 0.1 µM, first compound 0.0316 µM
[11] = second compound 0.1 µM, first compound 0.1 µM
[12] = second compound 0.316 µM, first compound 0.000316 µM
[13] = second compound 0.316 µM, first compound 0.001 µM
[14] = second compound 0.316 µM, first compound 0.00316 µM
[15] = second compound 0.316 µM, first compound 0.01 µM
[16] = second compound 0.316 µM, first compound 0.0316 µM
[17] = second compound 0.316 µM, first compound 0.1 µM
[18] = second compound 1 µM, first compound 0.000316 µM
[19] = second compound 1 µM, first compound 0.001 µM
[20] = second compound 1 µM, first compound 0.00316 µM
[21] = second compound 1 µM, first compound 0.01 µM
[22] = second compound 1 µM, first compound 0.0316 µM
[23] = second compound 1 µM, first compound 0.1 µM
[24] = second compound 3.16 µM, first compound 0.000316 µM
[25] = second compound 3.16 µM, first compound 0.001 µM
[26] = second compound 3.16 µM, first compound 0.00316 µM
[27] = second compound 3.16 µM, first compound 0.01 µM
[28] = second compound 3.16 µM, first compound 0.0316 µM
[29] = second compound 3.16 µM, first compound 0.1 µM
[30] = second compound 10 µM, first compound 0.000316 µM
[31] = second compound 10 µM, first compound 0.001 µM
[32] = second compound 10 µM, first compound 0.00316 µM
[33] = second compound 10 µM, first compound 0.01 µM
[34] = second compound 10 µM, first compound 0.0316 µM
[35] = second compound 10 µM, first compound 0.1 µM
[36] = second compound 0.1 µM, first compound 0.316 µM
[37] = second compound 0.1 µM, first compound 1 µM
[38] = second compound 0.1 µM, first compound 3.16 µM
[39] = second compound 0.1 µM, first compound 10 µM
[40] = second compound 0.316 µM, first compound 0.316 µM
[41] = second compound 0.316 µM, first compound 1 µM
[42] = second compound 0.316 µM, first compound 3.16 µM
[43] = second compound 0.316 µM, first compound 10 µM
[44] = second compound 1 µM, first compound 0.316 µM
[45] = second compound 1 µM, first compound 1 µM
[46] = second compound 1 µM, first compound 3.16 µM
[47] = second compound 1 µM, first compound 10 µM
[48] = second compound 3.16 µM, first compound 0.316 µM
[49] = second compound 3.16 µM, first compound 1 µM
[50] = second compound 3.16 µM, first compound 3.16 µM
[51] = second compound 3.16 µM, first compound 10 µM
[52] = second compound 10 µM, first compound 0.316 µM
[53] = second compound 10 µM, first compound 1 µM
[54] = second compound 10 µM, first compound 3.16 µM
[55] = second compound 10 µM, first compound 10 µM
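Also: spheroids exposed to compounds for 7 days before readout.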
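For viability, T/C in this document: 100% = DMSO vehicle control wells.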

## CC(C)CC(NC(=O)CNC(=O)c1cc(Cl)ccc1Cl)B1OC(=O)CC(CC(=O)O)(C(=O)O)O1 (centres undefined) + NC1CCC(NC2CC2c2ccccc2)CC1
[1]
  IC50: > 100 nM
[2]
  IC50: 92.5 nM
[3]
  IC50: > 100 nM
[4]
  IC50: > 100 nM
[5]
  IC50: 86.5 nM
[6]
  viability, T/C: 95.9%
[7]
  viability, T/C: 105%
[8]
  viability, T/C: 109%
[9]
  viability, T/C: 80.4%
[10]
  viability, T/C: 72.6%
[11]
  viability, T/C: 60.7%
[12]
  viability, T/C: 119%
[13]
  viability, T/C: 123%
[14]
  viability, T/C: 108%
[15]
  viability, T/C: 80.5%
[16]
  viability, T/C: 79.8%
[17]
  viability, T/C: 46.6%
[18]
  viability, T/C: 120%
[19]
  viability, T/C: 120%
[20]
  viability, T/C: 108%
[21]
  viability, T/C: 98.1%
[22]
  viability, T/C: 78.4%
[23]
  viability, T/C: 51.9%
[24]
  viability, T/C: 104%
[25]
  viability, T/C: 113%
[26]
  viability, T/C: 105%
[27]
  viability, T/C: 89.1%
[28]
  viability, T/C: 92.6%
[29]
  viability, T/C: 48.9%
[30]
  viability, T/C: 134%
[31]
  viability, T/C: 107%
[32]
  viability, T/C: 100%
[33]
  viability, T/C: 100%
[34]
  viability, T/C: 76.6%
[35]
  viability, T/C: 43.9%

## CC1(C)CCC(CN2CCN(c3ccc(C(=O)NS(=O)(=O)c4ccc(NCC5CCOCC5)c([N+](=O)[O-])c4)c(Oc4cnc5[nH]ccc5c4)c3)CC2)=C(c2ccc(Cl)cc2)C1 + NC1CC1c1ccc(-c2cccc(O)c2)cc1
[1]
  IC50: > 10000 nM
[2]
  IC50: > 10000 nM
[3]
  IC50: > 10000 nM
[4]
  IC50: > 10000 nM
[5]
  IC50: > 10000 nM
[10]
  viability, T/C: 90.8%
[11]
  viability, T/C: 119%
[36]
  viability, T/C: 106%
[37]
  viability, T/C: 110%
[38]
  viability, T/C: 122%
[39]
  viability, T/C: 117%
[16]
  viability, T/C: 107%
[17]
  viability, T/C: 120%
[40]
  viability, T/C: 112%
[41]
  viability, T/C: 110%
[42]
  viability, T/C: 119%
[43]
  viability, T/C: 120%
[22]
  viability, T/C: 105%
[23]
  viability, T/C: 102%
[44]
  viability, T/C: 117%
[45]
  viability, T/C: 130%
[46]
  viability, T/C: 113%
[47]
  viability, T/C: 107%
[28]
  viability, T/C: 103%
[29]
  viability, T/C: 104%
[48]
  viability, T/C: 111%
[49]
  viability, T/C: 109%
[50]
  viability, T/C: 121%
[51]
  viability, T/C: 94.8%
[34]
  viability, T/C: 109%
[35]
  viability, T/C: 103%
[52]
  viability, T/C: 128%
[53]
  viability, T/C: 111%
[54]
  viability, T/C: 113%
[55]
  viability, T/C: 95.3%

## Cn1ncnc1C1c2n[nH]c(=O)c3cc(F)cc(c23)NC1c1ccc(F)cc1 (centres undefined) + NC1CCC(NC2CC2c2ccccc2)CC1
[1]
  IC50: > 100 nM
[2]
  IC50: > 100 nM
[3]
  IC50: > 100 nM
[4]
  IC50: > 100 nM
[5]
  IC50: > 100 nM
[6]
  viability, T/C: 121%
[7]
  viability, T/C: 99.1%
[8]
  viability, T/C: 100%
[9]
  viability, T/C: 103%
[10]
  viability, T/C: 101%
[11]
  viability, T/C: 86.2%
[12]
  viability, T/C: 105%
[13]
  viability, T/C: 102%
[14]
  viability, T/C: 93.6%
[15]
  viability, T/C: 115%
[16]
  viability, T/C: 92%
[17]
  viability, T/C: 103%
[18]
  viability, T/C: 104%
[19]
  viability, T/C: 108%
[20]
  viability, T/C: 90.2%
[21]
  viability, T/C: 81.7%
[22]
  viability, T/C: 90.2%
[23]
  viability, T/C: 84%
[24]
  viability, T/C: 101%
[25]
  viability, T/C: 101%
[26]
  viability, T/C: 101%
[27]
  viability, T/C: 103%
[28]
  viability, T/C: 101%
[29]
  viability, T/C: 94%
[30]
  viability, T/C: 111%
[31]
  viability, T/C: 98%
[32]
  viability, T/C: 91.7%
[33]
  viability, T/C: 103%
[34]
  viability, T/C: 90.4%
[35]
  viability, T/C: 97.7%

## CC[C@@]1(O)C(=O)OCc2c1cc1n(c2=O)Cc2cc3c(CN(C)C)c(O)ccc3nc2-1 + NC1CC1c1ccc(-c2cccc(O)c2)cc1
[1]
  IC50: > 100 nM
[2]
  IC50: > 100 nM
[3]
  IC50: > 100 nM
[4]
  IC50: 58.7 nM
[5]
  IC50: > 100 nM
[6]
  viability, T/C: 98.9%
[7]
  viability, T/C: 95.7%
[8]
  viability, T/C: 104%
[9]
  viability, T/C: 97.8%
[10]
  viability, T/C: 66.4%
[11]
  viability, T/C: 55.7%
[12]
  viability, T/C: 103%
[13]
  viability, T/C: 99.6%
[14]
  viability, T/C: 89.7%
[15]
  viability, T/C: 74.3%
[16]
  viability, T/C: 67.9%
[17]
  viability, T/C: 53.9%
[18]
  viability, T/C: 97.7%
[19]
  viability, T/C: 100%
[20]
  viability, T/C: 80%
[21]
  viability, T/C: 76.3%
[22]
  viability, T/C: 68.5%
[23]
  viability, T/C: 55.3%
[24]
  viability, T/C: 101%
[25]
  viability, T/C: 86.7%
[26]
  viability, T/C: 78.3%
[27]
  viability, T/C: 69.9%
[28]
  viability, T/C: 53.8%
[29]
  viability, T/C: 45%
[30]
  viability, T/C: 120%
[31]
  viability, T/C: 93%
[32]
  viability, T/C: 90.6%
[33]
  viability, T/C: 70.5%
[34]
  viability, T/C: 77.6%
[35]
  viability, T/C: 50.3%

## O=C(c1cc(Cc2n[nH]c(=O)c3ccccc23)ccc1F)N1CCN(C(=O)C2CC2)CC1
Compound 0.0316 µM
  viability, T/C: 95.3% and 101%
Compound 0.1 µM
  viability, T/C: 88.2% and 113%
Compound 0.316 µM
  viability, T/C: 102% and 108%
Compound 1 µM
  viability, T/C: 108%
Compound 3.16 µM
  viability, T/C: 94.5% and 93.2%
Compound 10 µM
  viability, T/C: 83% and 82.5%
Curve of compound
  IC50: > 10000 nM

## COc1ccc([C@@H](O)c2cc(-c3ncnc4cc(N5CCOCC5)ccc34)c(F)cc2Cl)nn1 + NC1CCC(NC2CC2c2ccccc2)CC1
[1]
  IC50: 2810 nM
[2]
  IC50: 2310 nM
[3]
  IC50: 1670 nM
[4]
  IC50: 1850 nM
[5]
  IC50: 1900 nM
[10]
  viability, T/C: 110%
[11]
  viability, T/C: 109%
[36]
  viability, T/C: 87.2%
[37]
  viability, T/C: 70.9%
[38]
  viability, T/C: 47.1%
[39]
  viability, T/C: 34.9%
[16]
  viability, T/C: 125%
[17]
  viability, T/C: 121%
[40]
  viability, T/C: 99%
[41]
  viability, T/C: 65.9%
[42]
  viability, T/C: 46.9%
[43]
  viability, T/C: 18.6%
[22]
  viability, T/C: 125%
[23]
  viability, T/C: 112%
[44]
  viability, T/C: 101%
[45]
  viability, T/C: 61.6%
[46]
  viability, T/C: 34.1%
[47]
  viability, T/C: 19.4%
[28]
  viability, T/C: 124%
[29]
  viability, T/C: 123%
[48]
  viability, T/C: 92.9%
[49]
  viability, T/C: 62.2%
[50]
  viability, T/C: 41.6%
[51]
  viability, T/C: 17%
[34]
  viability, T/C: 117%
[35]
  viability, T/C: 120%
[52]
  viability, T/C: 102%
[53]
  viability, T/C: 66.1%
[54]
  viability, T/C: 38.2%
[55]
  viability, T/C: 26.4%

## Nc1ccccc1NC(=O)c1ccc(CNC(=O)OCc2cccnc2)cc1
Compound 0.00949 µM
  viability, T/C: 85.4% and 102%
Compound 0.03 µM
  viability, T/C: 89.2% and 78%
Compound 0.0949 µM
  viability, T/C: 95.2% and 79.4%
Compound 0.3 µM
  viability, T/C: 78.8% and 67.1%
Compound 0.949 µM
  viability, T/C: 54.2% and 47.6%
Compound 3 µM
  viability, T/C: 32.6% and 26.4%
Curve of compound
  IC50: 1160 nM and 758 nM

Reference: PubChem BioAssay AID1918942 (Molecular Pharmacology Branch, DTP, NCI, 2023)
